Test results reported in PMC4220862 (Inorganic Chemistry, 2014).

Experiments:
[1] = target: T1, amyloid β peptide (Aβ40 fibrils) (Homo sapiens, UniProt P05067); assay: direct fluorescence titration of Aβ[…] fibrils, one-site fit; assay type: binding
[2] = target: T1, amyloid β peptide (Aβ40 fibrils); assay: ThT fluorescence competition assay with Aβ[…] fibrils; assay type: binding

T1 sequence (P05067 672-711): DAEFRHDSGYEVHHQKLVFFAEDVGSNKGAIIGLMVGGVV

Row | SMILES | Kd [1] | Ki [2]
1 | CCN(CC)c1ccc(-c2nc3ccccc3s2)c(O)c1 [L1, 2-[2-hydroxy-4-(diethylamino)phenyl]benzothiazole] | 4.7 ± 0.3 µM | 
2 | COc1cccc(-c2nc3ccccc3s2)c1O [L2, 2-(2-hydroxy-3-methoxyphenyl)benzothiazole] |  | 0.015 ± 0.01 µM
